Assay results published in patent US7345079B2, “Treatment of disorder related to low cyclic GMP levels” (Yung Shin Pharmaceuticals Industrial Co., Ltd, priority 2001, dated 2008).

Legend:
PDE 5 = target: T1, PDE 5 (Homo sapiens, UniProt O76074); assay: Inhibition of PDE 5 (human platelet lysate, cGMP hydrolysis); assay type: biochemical; details: PDE 5 from washed human platelet supernatant; 10 μM cGMP; 37° C. 30 minutes; read-out: IC50 in inhibiting PDE 5
T1 construct: Washed human platelets were prepared by the method described in Teng et al; from tissue; host or cells: human platelets (sonicated lysate, 39,000×g supernatant)
Method: A suitable in vitro assay can be used to preliminarily evaluate the effect of a fused pyrazolyl compound on inhibiting a PDE, which hydrolyzes cGMP. For example, platelets are washed, suspended in a buffer, and disrupted by sonication to obtain a solution containing a PDE. A compound to be tested and cGMP (a substrate for the PDE) are added to the solution. Ophiophagus hannah snake venom is subsequently added to remove the phosphate in 5′-GMP (converted from cGMP by the PDE) to form uncharged guanosine. An ion-exchange resin is used to remove the remaining cGMP. The cGMP-free solution is then centrifuged, and an aliquot of the supernatant is taken for quantification of the uncharged guanosine in a liquid scintillation counter. Activity of the PDE is evaluated based on the amount of the uncharged guanosine. In vivo screening can be performed by following procedures well known in the art.
Washed human platelets were prepared by the method described in Teng et al. Biochem. Biophys. Acta. 1989, 990, 315-320, suspended in 50 mM pH 7.4 Tris-HCl buffer (containing 5 mM MgCl2), and then disrupted by sonication at 4° C. […] The cGMP-free solution thus obtained was then centrifuged, and 0.5 mL of the supernatant was taken for quantification of uncharged guanosine in a liquid scintillation counter.

Row | IC50 (PDE 5) [µM] | melting point [°C] | SMILES
1 | 3.5 | 109 to 110 | COc1ccc2c(-c3ccc(CO)o3)nn(Cc3ccccc3)c2c1 [Compound 1, 1-benzyl-3-(5′-hydroxymethyl-2′-furyl)-6-methoxyindazole]
2 |  | 122 to 123 | OCc1ccc(-c2nn(Cc3ccccc3)c3cc4c(cc23)OCO4)o1 [Compound 4, 1-benzyl-3-(5′-hydroxymethyl-2′-furyl)-5,6-methylenedioxoindazole]
